In patent publication US20070207093A1, “Hydrazone derivatives and uses thereof” (Linquagen Corp., priority 2005, published 2007):

Legend:
Type in all cases: cell-based
human TRPM5 ion channel = molecular target: T1, human TRPM5 ion channel (Homo sapiens, UniProt Q9NZQ8); assay: TRPM5 FLIPR membrane potential screening assay (ATP stimulation); details: 10 μM compound; HEK293 cells stably expressing human TRPM5; 3 μM ATP stimulation; versus negative control wells; read-out: TRPM5 Activity (percent inhibition)
T1 construct: expressed in transfected cells
T1 sequence (Q9NZQ8 1-1165): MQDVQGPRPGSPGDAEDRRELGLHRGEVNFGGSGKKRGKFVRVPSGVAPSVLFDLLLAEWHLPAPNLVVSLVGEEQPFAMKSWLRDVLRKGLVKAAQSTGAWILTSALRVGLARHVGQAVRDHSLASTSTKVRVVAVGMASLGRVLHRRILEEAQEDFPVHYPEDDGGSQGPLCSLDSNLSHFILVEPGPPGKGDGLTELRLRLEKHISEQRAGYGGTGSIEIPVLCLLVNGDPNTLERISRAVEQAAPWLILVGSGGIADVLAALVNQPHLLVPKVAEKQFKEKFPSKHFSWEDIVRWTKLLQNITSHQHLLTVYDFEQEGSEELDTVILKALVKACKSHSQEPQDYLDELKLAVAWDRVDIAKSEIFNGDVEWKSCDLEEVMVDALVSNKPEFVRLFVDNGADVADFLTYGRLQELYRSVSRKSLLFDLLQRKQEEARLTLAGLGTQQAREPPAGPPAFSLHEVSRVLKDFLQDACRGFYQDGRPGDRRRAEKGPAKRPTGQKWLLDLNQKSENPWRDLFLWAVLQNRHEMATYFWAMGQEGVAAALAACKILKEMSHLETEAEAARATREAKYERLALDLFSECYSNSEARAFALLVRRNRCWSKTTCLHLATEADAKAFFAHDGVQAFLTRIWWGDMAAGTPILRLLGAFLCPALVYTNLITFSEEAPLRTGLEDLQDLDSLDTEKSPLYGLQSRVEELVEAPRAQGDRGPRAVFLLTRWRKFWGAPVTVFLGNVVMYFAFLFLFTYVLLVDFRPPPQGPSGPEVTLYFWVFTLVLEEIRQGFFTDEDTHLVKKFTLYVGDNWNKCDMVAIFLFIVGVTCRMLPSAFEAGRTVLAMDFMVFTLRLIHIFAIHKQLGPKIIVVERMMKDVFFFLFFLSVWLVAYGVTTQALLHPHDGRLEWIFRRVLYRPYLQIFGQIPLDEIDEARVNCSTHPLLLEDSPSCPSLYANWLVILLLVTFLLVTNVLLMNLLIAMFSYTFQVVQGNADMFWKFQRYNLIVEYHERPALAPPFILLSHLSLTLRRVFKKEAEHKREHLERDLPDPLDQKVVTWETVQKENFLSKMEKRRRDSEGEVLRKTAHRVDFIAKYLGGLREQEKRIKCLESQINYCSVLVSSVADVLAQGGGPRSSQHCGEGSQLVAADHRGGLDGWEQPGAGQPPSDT
Method: The activity of human TRPM5 ion channel was measured in live cells on a fluorescent imaging plate reader (FLIPR). The basis of the assay (shown in FIG. 1) is the calcium-dependent activation of the ion channel which occurs via by activation of a G-protein coupled receptor (GPCR). GPCR activation by an appropriate agonist causes a transient increase in […] Ca^2+ ion concentration which in turn causes the ion channel to open, letting in Na^+ ions. This influx causes a change in the membrane potential of the cell which can be monitored as a change in the fluorescent signal from voltage-dependent (membrane potential) fluorescent dyes.
For the screening assay, the human TRPM5 gene was cloned, put into HEK293 cells, and a stable, high expression clone was used for screening. Cells were grown in standard media at 37° C. The day before screening, the cells were removed from flasks and added to 384 well clear bottom plates (8K cells in 20 μL/well). On the assay day, 20 μL of membrane potential dye (Part No. R8123, Molecular Devices Corp.) was added to the cells and dye was allowed to be taken up, i.e., load, into the cells for 1 hr at 37° C. […] The assay was started by addition of 10 μL of solution from the compound plate into the cell plate. During this process, continuous fluorescent recordings were made simultaneously for all wells. After addition of the compound solution, the tips were automatically washed and a stimulation solution of 3 μM ATP (an agonist for an endogenous purinurgic GPCR, was added to all wells of the cell plate. The height of the response was calculated and percent inhibition values, versus negative control wells, was calculated for the test samples.
(§1) Unless otherwise indicated, the data in the table below were determined using the three assays described above, providing percent inhibition data at 10 μM.

[1] = test system: GPCR-mediated calcium activation step; assay: Calcium counterscreen (calcium sensitive dye, ATP stimulation); details: Homo sapiens, 10 μM compound, same HEK293 TRPM5 cells, Calcium3 dye, read-out: Calcium Counterscreen (percent inhibition)
Method: (§2) Two counterscreen assays were run on separate cell plates utilizing the same cells as described above. In the calcium counterscreen, the cells were loaded with a calcium sensitive dye (Calcium3 Dye, Part no. 8090, Molecular Devices Corp.) and stimulated by ATP to check for compounds that block the GPCR-mediated calcium activation step. In the KCl counterscreen, cells are stimulated with 10 mM KCl instead of ATP to check for compounds that inhibit the membrane potential response by virtue of being non-specific ion channel blockers.
as §1

[2] = test system: membrane potential response (non-specific ion channel block); assay: KCl counterscreen (membrane potential dye, 10 mM KCl stimulation); details: Homo sapiens; 10 μM compound; same HEK293 TRPM5 cells; 10 mM KCl instead of ATP; read-out: KC1 Counterscreen (percent inhibition)
Method: as §2, §1

Row | Compound | inhibition at 10 µM (human TRPM5 ion channel) | inhibition at 10 µM [1] | inhibition at 10 µM [2]
1 | COC(=O)c1ccc(/N=N/C(=N\Nc2nc3ccccc3s2)C(C)C)cc1 [Example 1, Methyl 4-((E)-((Z)-1-(2-(benzo[d]thiazol-2-yl)hydrazono) -2-methylpropyl)diazenyl)benzoate] | 60% | -11% | 20%
2 | O=C(O)COc1ccc(Br)cc1/C=N/Nc1cccc2cccnc12 [Example 2, (E)-2-(4-Bromo-2-((2-(quinolin-8-yl)hydrazono)methyl)phenoxy)acetic acid] | 87% | -10% | 70%
3 | COc1ccc(/C=N/NC(=O)C2CC2c2ccccc2)cc1OC (stereo not drawn) [Example 4, (E)-N′-(3,4-Dimethoxybenzylidene)-2-phenylcyclopropanecarbohydrazide] | 99% | -1% | -4%
4 | COc1ccc(/C=N/NC(=O)CC(CO)C2=CCCCC2)cc1 (stereo not drawn) [Example 5, (E)-3-Cyclohexenyl-4-hydroxy-N′-(4-methoxybenzylidene)butanehydrazide] | 96% | -7% | 29%
5 | CCCCCCCC(O)CCC(=O)N/N=C/c1ccc(OC)c(OC)c1 (stereo not drawn) [Example 6] | 93% | 0% | -15%
6 | O=C(O)c1ccccc1N/N=C(\N=N\c1ccccc1)c1ccccc1 [Example 7, 2-((Z)-2-(Phenyl-((E)-phenyldiazenyl) -methylene)hydrazinyl)benzoic acid] | 83% | -17% | 81%
7 | COc1ccc(/C=N/NC(=O)COc2cccc(C)c2)cc1OC [Example 8, (E)-N′-(3,4-Dimethoxybenzylidene)-2-(m-tolyloxy)acetohydrazide] | 76% | -3% | 7%
8 | C=CCOc1ccc(/C=N/NC(=O)CSCc2cccc(Br)c2)cc1OC [Example 9, (E)-N′-(4-(Allyloxy)-3-methoxybenzylidene)-2-(3-bromobenzylthio)acetohydrazide] | 80% | 2% | 21%
9 | CC(C)c1ccc(/C=N/NC(=O)C2C3CCCCC32)cc1 (stereo not drawn) [Example 10, (E)-N′-(4-Isopropylbenzylidene)bicyclo[4.1.0.]heptane-7-carbohydrazide] | 78% | -38% | -11%
10 | CN1/C(=C\C=N\Nc2ccc([N+](=O)[O-])cc2)C(C)(C)c2ccccc21 [Example 11, (Z)-1,3,3-Trimethyl-2-((E)-2-(2-(4-nitrophenyl)hydrazono)ethylidene)indoline] | 67% | 23% | 14%
11 | CCN(CC)c1ccc(/C=N/NC(=O)C2CC2c2ccccc2)c(O)c1 (stereo not drawn) [Example 12, (E)-N′-(4-(Diethylamino)-2-hydroxybenzylidene) -2-phenylcyclopropanecarbohydrazide] | 48% | -35% | -7%
12 | N#CC(C#N)=NNc1ccc(SC(F)(F)F)cc1 [Example 13, (4-(Trifluoromethylthio)penyl)carbonohydrazonoyldicyanide] | 78% | 2% | 65%
13 | O=[N+](O)c1ccc(N2CCCC2)cc1N/N=C1\CN2CCC1CC2 [Example 21] | 51% | 6% | 42%

The next lines start with results.

Row | inhibition at 10 µM (human TRPM5 ion channel) | Compound | inhibition at 10 µM [1] | inhibition at 10 µM [2]
14 | 78% | Cc1ccc2c(c1)/C(=N/NC(=O)/C(=C\c1ccccc1)NC(=O)c1ccccc1)C(=O)N2C [Example 14, N-((E)-3-((Z)-2-(1,5-Dimethyl-2-oxoindolin-3-ylidene)hydrazinyl)-3-oxo-1-phenylprop-1-en-2-yl)benzamide] | -29% | 40%
15 | 74% | CCCCn1cc(/C=N\Nc2ccccc2C(=O)O)c2ccccc21 [Example 15, (Z)-2-(2-((1-Butyl-1H-indol-3-yl)methylene)hydrazinyl)benzoic acid] | 4% | 43%
16 | 74% | C(=N\N(Cc1ccccc1)c1ccccc1)/c1ccncc1 [Example 16, (E)-4-((2-Benzyl-2-phenylhydrazono)methyl)pyridine] | -6% | -2%
17 | 40% | O=C(N/N=C\c1ccc[nH]1)C12CC3CC(CC(C3)C1)C2 [Example 17, (Z)-N′-((1H-Pyrrol-2-yl)methylene)tricyclo [3.3.1^3,7]decane-3-carbohydrazide] | -13% | 8%
18 | 87% | CCN(CCO)c1ccc(N/N=C2\C(=O)C=Cc3ccccc32)cc1 [Example 18, (Z)-1-(2-(4-(Ethyl-(2-hydroxyethyl)-amino)phenyl)hydrazono)naphthalen-2(1H)-one] | -9% | 33%
19 | 65% | CN(/N=C/c1ccc(O)cc1O)c1ncc(Cl)cc1C(F)(F)F [Example 19, (E)-4-((2-(5-Chloro-3-(trifluoromethyl)pyridini-2-yl)-2-2-methylhydrazono)methyl)benzene-1,3-diol] | 5% | 36%
20 | 70% | Cc1ccc(NCC(=O)N/N=C/c2ccc(N3CCOCC3)c([N+](=O)[O-])c2)cc1C [Example 20, (E)-2-(3,4-Dimethylphenylamino)-N′-(4-morpholino-3-nitrobenzylidene)acetohydrazide] | -3% | 16%
21 | 58% | CCN(CC)c1ccc(/C=N/Nc2nc3ccccc3[nH]2)c(O)c1 [Example 22, (E)-2-((2-(1H-Benzo[d]imidazol-2-yl)hydrazono)methyl)-5-(diethylamino)phenol] | -23% | 32%
